{"source": "patent US20260191863A1", "about": "“PYRROLOPYRIMIDINE COMPOSITIONS FOR TREATMENT OF ITK MEDIATED CONDITIONS” (ACLARIS THERAPEUTICS, INC., priority 2022, published 2026)", "key": {"JAK3": {"molecular_target": "T1, JAK3 (Homo sapiens, UniProt P52333)", "T1 construct": "IL-2/pSTAT5; endogenous in cells; host or cells: human PBMC", "T1 sequence (P52333 1-1124)": "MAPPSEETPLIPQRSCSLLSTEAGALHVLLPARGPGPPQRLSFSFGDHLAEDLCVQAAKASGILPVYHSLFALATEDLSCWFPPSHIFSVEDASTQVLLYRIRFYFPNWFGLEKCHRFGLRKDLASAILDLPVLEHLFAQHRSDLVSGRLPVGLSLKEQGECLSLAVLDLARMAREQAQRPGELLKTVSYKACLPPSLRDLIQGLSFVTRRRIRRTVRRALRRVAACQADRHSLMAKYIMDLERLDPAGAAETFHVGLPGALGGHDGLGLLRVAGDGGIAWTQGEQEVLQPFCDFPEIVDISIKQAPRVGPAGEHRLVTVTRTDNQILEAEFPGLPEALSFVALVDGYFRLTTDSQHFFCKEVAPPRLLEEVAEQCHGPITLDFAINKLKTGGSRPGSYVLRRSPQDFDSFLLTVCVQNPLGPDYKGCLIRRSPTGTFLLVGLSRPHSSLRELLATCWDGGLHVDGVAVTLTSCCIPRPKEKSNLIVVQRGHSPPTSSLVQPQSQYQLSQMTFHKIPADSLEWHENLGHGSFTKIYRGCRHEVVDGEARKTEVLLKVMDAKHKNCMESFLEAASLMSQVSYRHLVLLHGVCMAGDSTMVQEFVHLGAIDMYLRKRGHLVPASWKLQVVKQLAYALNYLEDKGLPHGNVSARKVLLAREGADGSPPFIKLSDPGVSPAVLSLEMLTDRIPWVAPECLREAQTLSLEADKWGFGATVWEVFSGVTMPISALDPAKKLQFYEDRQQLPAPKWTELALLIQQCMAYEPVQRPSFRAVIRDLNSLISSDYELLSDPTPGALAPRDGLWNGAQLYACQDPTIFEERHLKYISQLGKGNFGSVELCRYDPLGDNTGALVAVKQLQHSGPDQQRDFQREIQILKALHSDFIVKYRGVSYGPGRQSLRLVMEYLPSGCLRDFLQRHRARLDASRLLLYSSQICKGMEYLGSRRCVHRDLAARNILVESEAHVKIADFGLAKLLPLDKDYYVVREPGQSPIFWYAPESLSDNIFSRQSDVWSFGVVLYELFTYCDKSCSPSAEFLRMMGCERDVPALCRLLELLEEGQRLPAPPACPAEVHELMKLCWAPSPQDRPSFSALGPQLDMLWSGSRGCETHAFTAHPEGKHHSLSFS", "assay": "Cell IC50 JAK3 hPBMC IL-2/pSTAT5", "assay_type": "cell-based"}, "ITK (IL2 mRNA)": {"tested_on": "ITK (IL2 mRNA)", "assay": "SAD ex vivo PD: αCD3/αCD28 stimulated IL2 mRNA production", "assay_type": "in vivo", "details": "Homo sapiens", "description": "Secondary Endpoints—Compound I plasma concentrations. Mean change from baseline in ex vivo stimulated pSTAT5 and pSTAT1 (signal transducer and activator of transcription); and in ex vivo stimulated IFNγ mRNA (interferon gamma messenger ribonucleic acid).\nSummary of SAD data: FIGS. 4-8 and 9-13 show the SAD dose response, SAD exposure response, and SAD calculated response at Cmax by dose respectively for ITK (IL2 mRNA), ITK (IFNγ mRNA), JAK3 (pSTAT5, lymph), JAK3 (pSTAT5, CD3′ T), and ITK & JAK (IFNγ protein). Clinical and pre-clinical IC50 data for ITK (IL2 mRNA), ITK (IFNγ mRNA), JAK3 (pSTAT5, lymph), JAK3 (pSTAT5, CD3^+ T), and ITK & JAK (IFNγ protein) from the SAD study is shown in table 4."}, "[1]": {"tested_on": "ankle diameter swelling (Antigen Induced Arthritis)", "assay": "Rat Antigen Induced Arthritis (AIA) model, ankle diameter swelling", "assay_type": "in vivo", "details": "PO from day 6", "description": "The study evaluated the rat AIA kinetics of ankle diameter swelling. Therapeutic model with PO dosing beginning on day 6."}, "[2]": {"assay": "13 week toxicology and toxicokinetic study in cynomolgus monkeys", "assay_type": "in vivo, cynomolgus monkey", "details": "for AUC(0-t) / Cmax: in vivo", "description": "Purpose: Evaluation of toxicity and toxicokinetic (TK) for Compound I, following daily dosing for 13 weeks."}}, "note": "Values joined by “and” are separate entries in the source; they are usually repeats but may differ in a detail not shown here. Equal entries are not always repeated. Where two headings read alike, the source gives them in different places.", "data": [{"smiles": "C=CC(=O)N1C[C@H](Nc2ncnc3[nH]cc([C@H]4CC4(F)F)c23)CC[C@@H]1C", "note": "[Compound I, 1-((2S,5R)-5-((5-((R)-2,2-difluorocyclopropyl)-7H-pyrrolo[2,3-d]pyrimidin-4-yl)amino)-2-methylpiperidin-1-yl)prop-2-en-1-one]", "values": [{"measurement": "Potency relative to Ritlecitinib, JAK3 hPBMC IL-2/pSTAT5", "setting": "JAK3", "result": 2.3, "unit": "fold"}, {"measurement": "IC50", "setting": "JAK3; hPBMC, IL-2/pSTAT5", "result": 23, "unit": "nM"}, {"measurement": "JAK specificity", "setting": "JAK3; vs other JAK kinases like JAK2", "result": "completely specific for JAK3"}, {"measurement": "EC50", "setting": "ITK (IL2 mRNA); SAD study, read-out: Clinical EC50", "result": 15.2, "unit": "nM"}, {"measurement": "EC50", "setting": "ITK (IL2 mRNA); read-out: SAD EC50", "result": "0.0055 µg/mL and 15.2 nM"}, {"measurement": "Ankle diameter swelling, comparison of regimens", "setting": "[1]; rat AIA, 5 mpk BID, 15 BID and 30 QD", "result": "No significant difference"}, {"measurement": "BID vs QD dosing efficacy", "setting": "[1]; rat arthritis model", "result": "BID dosing is more effective than QD dosing"}, {"measurement": "No observed adverse effect level", "setting": "[2]; cynomolgus monkey, daily dosing 13 weeks", "result": 3, "unit": "mpk"}, {"measurement": "AUC(0-t)", "setting": "[2]; cynomolgus monkey, 3 mg/kg, monkey 3 mpk, Day 1, read-out: AUC0-24", "result": "153 ± 29.1", "unit": "ng·h/mL"}, {"measurement": "Cmax", "setting": "[2]; cynomolgus monkey, 3 mg/kg, monkey 3 mpk, Day 1, read-out: Cmax", "result": "104 ± 48.9", "unit": "ng/mL"}, {"measurement": "AUC(0-t)", "setting": "[2]; cynomolgus monkey, 3 mg/kg, monkey 3 mpk, Day 28, read-out: AUC0-24", "result": "412 ± 191", "unit": "ng·h/mL"}, {"measurement": "Cmax", "setting": "[2]; cynomolgus monkey, 3 mg/kg, monkey 3 mpk, Day 28, read-out: Cmax", "result": "304 ± 156", "unit": "ng/mL"}, {"measurement": "AUC(0-t)", "setting": "[2]; cynomolgus monkey, 3 mg/kg, monkey, NOAEL 3 mpk, read-out: AUC0-24 h at NOAEL", "result": 356, "unit": "ng·h/mL"}, {"measurement": "Cmax", "setting": "[2]; cynomolgus monkey, 3 mg/kg, monkey, NOAEL 3 mpk, read-out: Cmax at NOAEL", "result": 232, "unit": "ng/mL"}, {"measurement": "AUC(0-t)", "setting": "[2]; cynomolgus monkey, 6 mg/kg, monkey 6 mpk, Day 1, read-out: AUC0-24", "result": "692 ± 223", "unit": "ng·h/mL"}, {"measurement": "Cmax", "setting": "[2]; cynomolgus monkey, 6 mg/kg, monkey 6 mpk, Day 1, read-out: Cmax", "result": "401 ± 153", "unit": "ng/mL"}, {"measurement": "AUC(0-t)", "setting": "[2]; cynomolgus monkey, 6 mg/kg, monkey 6 mpk, Day 28, read-out: AUC0-24", "result": "1880 ± 911", "unit": "ng·h/mL"}, {"measurement": "Cmax", "setting": "[2]; cynomolgus monkey, 6 mg/kg, monkey 6 mpk, Day 28, read-out: Cmax", "result": "985 ± 475", "unit": "ng/mL"}, {"measurement": "AUC(0-t)", "setting": "[2]; cynomolgus monkey, 6 mg/kg, monkey 6 mpk, Day 91, read-out: AUC0-24", "result": "1410 ± 6190", "unit": "ng·h/mL"}, {"measurement": "Cmax", "setting": "[2]; cynomolgus monkey, 6 mg/kg, monkey 6 mpk, Day 91, read-out: Cmax", "result": "784 ± 512", "unit": "ng/mL"}, {"measurement": "AUC(0-t)", "setting": "[2]; cynomolgus monkey, 12 mg/kg, monkey 12 mpk, Day 1, read-out: AUC0-24", "result": "2510 ± 1420", "unit": "ng·h/mL"}, {"measurement": "Cmax", "setting": "[2]; cynomolgus monkey, 12 mg/kg, monkey 12 mpk, Day 1, read-out: Cmax", "result": "975 ± 648", "unit": "ng/mL"}, {"measurement": "AUC(0-t)", "setting": "[2]; cynomolgus monkey, 12 mg/kg, monkey 12 mpk, Day 28, read-out: AUC0-24", "result": "6930 ± 3790", "unit": "ng·h/mL"}, {"measurement": "Cmax", "setting": "[2]; cynomolgus monkey, 12 mg/kg, monkey 12 mpk, Day 28, read-out: Cmax", "result": "2160 ± 724", "unit": "ng/mL"}, {"measurement": "AUC(0-t)", "setting": "[2]; cynomolgus monkey, 12 mg/kg, monkey 12 mpk, Day 91, read-out: AUC0-24", "result": "6430 ± 3660", "unit": "ng·h/mL"}, {"measurement": "Cmax", "setting": "[2]; cynomolgus monkey, 12 mg/kg, monkey 12 mpk, Day 91, read-out: Cmax", "result": "1960 ± 677", "unit": "ng/mL"}, {"measurement": "Ratio over time (D 91/D 1) AUC", "setting": "[2]; monkey 3 mpk", "result": 2.4}, {"measurement": "Ratio over time (D 91/D 1) Cmax", "setting": "[2]; monkey 3 mpk", "result": 2.8}, {"measurement": "Ratio over time (D 91/D 1) AUC", "setting": "[2]; monkey 6 mpk", "result": 2.2}, {"measurement": "Ratio over time (D 91/D 1) Cmax", "setting": "[2]; monkey 6 mpk", "result": 2.2}, {"measurement": "Ratio over time (D 91/D 1) AUC", "setting": "[2]; monkey 12 mpk", "result": 2.6}, {"measurement": "Ratio over time (D 91/D 1) Cmax", "setting": "[2]; monkey 12 mpk", "result": 2.5}, {"measurement": "Morbidity / un-scheduled sacrifice", "setting": "[2]; monkey, 12 mpk, 12 mg/kg", "result": "morbidity and significant symptoms necessitating un-scheduled sacrifice and dosing holiday"}, {"measurement": "Effects on body weight (overall), food consumption (overall), clinical pathology in general, anatomic pathology, ophthalmology", "setting": "[2]; monkey, 13 weeks", "result": "No adverse effects observed"}, {"measurement": "Opportunistic infection in GI tract", "setting": "[2]; monkey, 13 weeks", "result": "dose-dependent opportunistic infection in GI tract"}, {"measurement": "Adverse effects", "setting": "[2]; monkey, more significant and persistent in mid/high dose groups", "result": "Liquid and non-formed feces associated with dehydration"}]}]}
